Test results from ChEMBL document CHEMBL4371101, “Antiproliferative Cardenolides from the Aerial Parts of Pergularia tomentosa” (J Nat Prod, 2019).
Activity calls are given as the source filed them. No cut-off for these calls is given here.

Key:
Type in all cases: functional, cell-based
PC-3 [1] = experiment: Antiproliferative activity against human PC3 cells after 72 hrs by MTT assay; settings: PC-3, 72 h
HeLa = experiment: Antiproliferative activity against human HeLa cells after 72 hrs by MTT assay
MCF7 = experiment: Antiproliferative activity against human MCF7 cells after 72 hrs by MTT assay; settings: MCF7, 72 h
Calu-1 = experiment: Antiproliferative activity against human Calu1 cells after 72 hrs by MTT assay; settings: Calu-1, 72 h
U-251 = experiment: Antiproliferative activity against human U251MG cells after 72 hrs by MTT assay; settings: U-251, 72 h
PC-3 [2] = experiment: Antiproliferative activity against human PC3 cells assessed as reduction in BrdU incorporation at 1 uM after 24 hrs by Hoechst staining based microscopic assay

| SMILES | IC50 (PC-3 [1]) [nM] | IC50 (HeLa) [nM] | IC50 (MCF7) [nM] | IC50 (Calu-1) [nM] | IC50 (U-251) [nM] | Activity (PC-3 [2]) |
| --- | --- | --- | --- | --- | --- | --- |
| C[C@]12[C@H](O)C[C@H]3[C@@H](CC[C@H]4C[C@H]5O[C@@H]6O[C@H](CO)C[C@@H](O)[C@]6(O)O[C@@H]5C[C@@]43C=O)[C@@]1(O)CC[C@@H]2C1=CC(=O)OC1 | 8900 | 300 | 2000 | 3700 | 5500 |  |
| C[C@]12CC[C@H]3[C@@H](CC[C@H]4C[C@H]5O[C@@H]6O[C@H](CO)C[C@H](O)[C@]6(O)O[C@@H]5C[C@@]43C=O)[C@@]1(O)CC[C@@H]2C1=CC(=O)OC1 | 3200 | 300 | 1800 | 1400 | 5000 |  |
| C[C@]12[C@H](O)C[C@H]3[C@@H](CC[C@H]4C[C@H]5O[C@@H]6O[C@H](CO)C[C@@H](O)[C@]6(O)O[C@@H]5C[C@@]43CO)[C@@]1(O)CC[C@@H]2C1=CC(=O)OC1 [GHALAKINOSIDE] | 4200 | 900 | 600 | 700 | 5200 |  |
| C[C@]12CC[C@H](O)C[C@@H]1CC[C@@H]1[C@@H]2CC[C@]2(C)[C@@H](C3=CC(=O)OC3)CC[C@]12O | 300 | 3000 | 6000 | 8000 | 6000 |  |
| C[C@]12[C@H](O)C[C@H]3[C@@H](CC[C@H]4C[C@H]5O[C@@H]6O[C@H](CO)C[C@H](O)[C@]6(O)O[C@@H]5C[C@@]43C=O)[C@@]1(O)CC[C@@H]2C1=CC(=O)OC1 | 900 | 2000 | 2800 | 2000 | 6000 | Active |
| C[C@@H]1C[C@H](O)[C@]2(O)O[C@@H]3C[C@@]4(C=O)[C@@H](CC[C@@H]5[C@@H]4C[C@@H](O)[C@]4(C)[C@@H](C6=CC(=O)OC6)[C@H](O)C[C@]54O)C[C@H]3O[C@@H]2O1 | 600 | 2300 | 7000 | 4300 | 1500 | Active |
| C[C@]12[C@H](O)C[C@H]3[C@@H](CC[C@H]4C[C@@H](O)CC[C@@]43CO)[C@@]1(O)CC[C@@H]2C1=CC(=O)OC1 | 8400 | 900 | 2500 | 1300 | 5000 |  |
| C[C@@H]1C[C@@H](O)[C@]2(O)O[C@@H]3C[C@@]4(CO)[C@@H](CC[C@@H]5[C@@H]4C[C@@H](O)[C@]4(C)[C@@H](C6=CC(=O)OC6)CC[C@]54O)C[C@H]3O[C@@H]2O1 | 600 | 7000 | 5000 | 6000 | 8000 |  |
| C[C@]12CC[C@H]3[C@@H](CC[C@H]4C[C@H]5O[C@@H]6O[C@H](CO)C[C@@H](O)[C@]6(O)O[C@@H]5C[C@@]43CO)[C@@]1(O)CC[C@@H]2C1=CC(=O)OC1 | 3000 | 300 | 200 | 600 | 1200 |  |
| C[C@@H]1C[C@@H](O[C@@H]2O[C@H](CO)[C@@H](O)[C@H](O)[C@H]2O)[C@]2(O)O[C@@H]3C[C@@]4(C=O)[C@@H](CC[C@@H]5[C@@H]4CC[C@]4(C)[C@@H](C6=CC(=O)OC6)CC[C@]54O)C[C@H]3O[C@@H]2O1 | 1000 | 600 | 200 | 300 | 4400 |  |
| C[C@]12CC[C@H](O[C@@H]3O[C@H](CO)[C@@H](O)[C@H](O)[C@H]3O)C[C@@H]1CC[C@@H]1[C@@H]2CC[C@]2(C)[C@@H](C3=CC(=O)OC3)CC[C@]12O [DESGLUCOUZARIN] | 300 | 600 | 6000 | 6500 | 8000 |  |
| C[C@@H]1C[C@H](O)[C@]2(O)O[C@@H]3C[C@@]4(C=O)[C@@H](CC[C@@H]5[C@@H]4C[C@@H](O)[C@]4(C)[C@@H](C6=CC(=O)OC6)CC[C@]54O)C[C@H]3O[C@@H]2O1 | 2100 | 600 | 200 | 600 | 1000 |  |
| C[C@@H]1C[C@@H](O)[C@]2(O)O[C@@H]3C[C@@]4(C=O)[C@@H](CC[C@@H]5[C@@H]4C[C@@H](O)[C@]4(C)[C@@H](C6=CC(=O)OC6)CC[C@]54O)C[C@H]3O[C@@H]2O1 | 300 | 2500 | 6000 | 7000 | 5300 | Active |
| CC(=O)O[C@@]12CO[C@@H]1C[C@H](O)[C@@]1(C)C(=O)[C@H](O)C3=C(C)[C@@H](OC(=O)[C@H](O)[C@@H](NC(=O)OC(C)(C)C)c4ccccc4)C[C@@](O)([C@@H](OC(=O)c4ccccc4)[C@H]21)C3(C)C [DOCETAXEL ANHYDROUS] | 0.6 | 0.3 | 0.5 | 0.4 | 0.7 |  |
| C[C@@H]1C[C@@H](O)[C@]2(O)O[C@@H]3C[C@@]4(C=O)[C@@H](CC[C@@H]5[C@@H]4CC[C@]4(C)[C@@H](C6=CC(=O)OC6)CC[C@]54O)C[C@H]3O[C@@H]2O1 [CALACTIN] | 3700 | 200 | 200 | 500 | 900 |  |
| C[C@]12CC[C@H]3[C@@H](CC[C@H]4C[C@@H](O[C@@H]5O[C@H](CO)[C@@H](O)[C@H](O)[C@H]5O)CC[C@@]43CO)[C@@]1(O)CC[C@@H]2C1=CC(=O)OC1 | 1000 | 300 | 8000 | 6000 | 6000 |  |
| C[C@]12CC[C@H]3[C@@H](CC[C@H]4C[C@@H](O)CC[C@@]43CO)[C@@]1(O)CC[C@@H]2C1=CC(=O)OC1 [COROGLAUCIGENIN] | 400 | 4200 | 7000 | 5800 | 5000 |  |
| CC(=O)O[C@@H]1C[C@]2(O)[C@@H]3CC[C@H]4C[C@H]5O[C@@H]6O[C@H](C)C[C@H](O)[C@]6(O)O[C@@H]5C[C@]4(C=O)[C@H]3C[C@@H](O)[C@]2(C)[C@H]1C1=CC(=O)OC1 | 4200 | 500 | 400 | 700 | 6500 |  |
| COc1cc(/C=C/C(=O)OC[C@H]2O[C@@H](O[C@H]3CC[C@@]4(C)[C@@H](CC[C@@H]5[C@@H]4CC[C@]4(C)[C@@H](C6=CC(=O)OC6)CC[C@]54O)C3)[C@H](O)[C@@H](O)[C@@H]2O)ccc1O | 300 | 4500 | 200 | 6000 | 5800 |  |
